Molecular target: T1, AID^47-CHK1 (A-CHK1) (UniProt P93830+Q7XVM8)
T1 construct: (encoding NP_001052659); 47-amino acid segment that corresponds to amino acids 63-109 of A. thaliana IAA17; expressed in transfected cells; host or cells: CCE mESCs (lentiviral pRAIDRS)
Experiment: Auxin-dependent depletion of A-CHK1 in mESCs (western blot)
Assay type: cell-based, mouse
Experimental: FIG. 5A is a western blot analysis depicting endogenous CHK1 (*) and AID^47-CHK1 (A-CHK1, **) in four selected clones and in parental non-infected mESCs. […] serves as a loading control. Experiment was repeated three times for clones #1 and #2, and a representative blot is presented. In FIG. 5B, A-CHK1 #2 mESCs were treated with ethanol (“Con”) or auxin (“IAA”) for 1 day. Cells were then treated with the indicated concentrations of aphidicolin (“Aph”). Equal concentrations of DMSO were applied to all conditions. The next day, cells were stained with crystal violet and plates were scanned. […] In FIG. 5C, mESC clones were pretreated with […] aphidicolin for 1 day and were then treated with auxin for the indicated time periods. Left panel: mitotic index was calculated as the percentage of H3^pS10-positive cells with 4N DNA content, measured by flow cytometry. Right panel: dot plots for A-CHK1 #2 mESCs treated with auxin for 0 or 45 minutes. Mitotic cells are gated. FIG. 5D show bright-field microscope images of cells treated as in FIG. 5C. Images show synchronous cell rounding, a feature of late mitotic cells, 2 hours following auxin treatment in aphidicolin-treated A-CHK1 #2 cells. FIG. 5E is a western blot analysis of cells treated as in FIG. 5C. Tyr15 phosphorylation of CDK1 (“CDKlpY^15”) was detected using a phospho-specific antibody. β-Actin serves as a loading control. […] Error bars represent standard deviation of three technical replicates. […]
Cells were lysed in RIPA-B buffer (20 mM Na2HPO4 pH 7.4, 150 mM NaCl and 1% Triton X-100) supplemented with Protease Inhibitor Cocktail (Roche) for 30 minutes on ice with occasional vortexing, followed by 30 minutes centrifugation at 13,000 relative centrifugal force at 4° C. […] Luminescence was detected with X-ray films, which were scanned, or using the Bio-Rad ChemiDoc MP System. […] Quantification of protein level was performed using the ImageJ software (Schneider et al., “NIH Image to ImageJ: 25 Years of Image Analysis,” Nat. Methods 9:671-675 2012), which is hereby incorporated by reference in its entirety). […]

T1 sequence (Q7XVM8 whole entry, the tested form may be a part): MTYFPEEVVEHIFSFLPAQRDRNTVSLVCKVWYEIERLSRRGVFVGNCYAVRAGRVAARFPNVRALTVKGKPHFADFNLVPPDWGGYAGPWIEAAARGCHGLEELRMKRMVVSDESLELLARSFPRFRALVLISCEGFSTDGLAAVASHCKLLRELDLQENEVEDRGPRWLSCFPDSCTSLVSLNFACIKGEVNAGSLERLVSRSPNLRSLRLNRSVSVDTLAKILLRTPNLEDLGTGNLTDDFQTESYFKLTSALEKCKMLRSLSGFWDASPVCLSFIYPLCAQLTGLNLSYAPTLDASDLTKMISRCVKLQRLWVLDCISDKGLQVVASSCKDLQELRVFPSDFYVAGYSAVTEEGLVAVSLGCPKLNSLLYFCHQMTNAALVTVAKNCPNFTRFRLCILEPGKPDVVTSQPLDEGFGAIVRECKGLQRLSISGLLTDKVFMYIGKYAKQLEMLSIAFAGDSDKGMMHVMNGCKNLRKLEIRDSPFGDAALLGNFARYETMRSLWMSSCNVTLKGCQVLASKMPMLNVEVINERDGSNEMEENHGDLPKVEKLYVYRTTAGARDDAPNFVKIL
T1 sequence (P93830 63-109): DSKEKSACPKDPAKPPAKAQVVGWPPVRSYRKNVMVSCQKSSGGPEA

O=C(O)Cc1c[nH]c2ccccc12 [auxin, indole-3-acetic acid]
time of auxin-dependent depletion of CHK1 (aphidicolin-treated mESCs): 20 min | time for >95% degradation of CHK1 (pRAIDRS system, auxin-dependent protein depletion): 20 to 30 min | auxin-dependent degradation of A-CHK1 (selected mESC clones, western blot): complete auxin-dependent degradation

— US11078496B2, “System for F-box hormone receptor regulated protein expression in mammalian cells” (ICAHN SCHOOL OF MEDICINE AT MOUNT SINAI, priority 2016, dated 2021)
